Data reported in EP4703362A1 (Chengdu Sibeibo Pharmaceutical Technology Co., Ltd, priority 2023, dated 2024).

Molecular target: T1, CGRP receptor complex (Homo sapiens, UniProt O60894+Q16602)
T1 construct: host or cells: SK-N-MC
Assay: determination of cell functional antagonism - cAMP determination
Format: cell-based
Settings: not given
Experimental: 1.Experimental principle A CGRP receptor complex was coupled with Gs in G protein, the combination of CGRP and CGRP receptor complex led to Gs activation, and cAMP (3',5'-cyclic adenosine monophosphate) was produced. 2.Experimental purpose The ability of the compound of the present invention to inhibit CGRP-stimulated cAMP formation in SK-N-MC cells was determined. 3.Experimental materials 3.1Experimental cell line: SK-N-MC (neuroepithelioma cells) from National Science and Technology Infrastructure - Biomedical Materials and Cell Resources. 3.2Reagents and consumables
4.Experimental steps • 4.1Cell preparation: The SK-N-MC cells were resuscitated and cultured in advance, and a cell confluence degree should be 70%-80% before use. • 4.2A sample dilution, a tested compound and α-CGRP (human) were prepared. • 4.3Cell seeding and drug effect: The SK-N-MC cells were digested, centrifuged, then resuspended with the sample dilution, and inoculated into a 384-well plate. Each well was added with the α-CGRP (human) and the tested compound respectively, and blown and mixed evenly. The well plate was adhered with a sealing film, and placed on an enzyme-labeled incubator to incubate at 25°C. • 4.4cAMP determination: carried out according to LANCE Ultra cAMP Kit specification Eu-cAMP tracer and ULight-anti-cAMP working solutions were prepared in the dark, respectively added into the well plate, and blown and mixed evenly.

T1 sequence (Q16602 23-461): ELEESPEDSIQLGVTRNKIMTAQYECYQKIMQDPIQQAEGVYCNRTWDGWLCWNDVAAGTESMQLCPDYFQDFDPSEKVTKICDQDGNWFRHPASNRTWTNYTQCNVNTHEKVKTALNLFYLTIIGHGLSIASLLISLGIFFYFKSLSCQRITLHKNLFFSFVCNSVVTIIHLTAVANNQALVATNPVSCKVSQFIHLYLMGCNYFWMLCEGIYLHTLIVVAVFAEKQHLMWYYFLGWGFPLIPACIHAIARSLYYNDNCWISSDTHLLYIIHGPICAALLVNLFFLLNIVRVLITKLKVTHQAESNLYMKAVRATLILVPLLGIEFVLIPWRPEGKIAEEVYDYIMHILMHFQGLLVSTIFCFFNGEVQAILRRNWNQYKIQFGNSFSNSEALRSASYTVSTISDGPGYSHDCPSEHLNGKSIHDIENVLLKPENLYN
T1 sequence (O60894 27-148): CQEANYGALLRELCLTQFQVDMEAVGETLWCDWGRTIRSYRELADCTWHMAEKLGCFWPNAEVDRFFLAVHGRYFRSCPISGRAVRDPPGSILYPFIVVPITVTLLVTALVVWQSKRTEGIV

| Compound | IC50 |
| --- | --- |
| Cc1cc(C[C@@H](NC(=O)N2CCC(c3cc4c([nH]c3=O)SCC3CC43)CC2)C(=O)N2CCN(C3CCN(C)CC3)CC2)cc2cn[nH]c12 (stereo partly drawn) [Example 47, N-((R)-3-(7-methyl-1H-indazole-5-yl)-1-(4-(1-methylpiperidine-4-yl)piperazine-1-yl)-1-oxopropan-2-yl)-4-(5-oxo-1,1a,2,4,5,7b-hexahydrocyclopropo[4,5]thiopyrano[2,3-b]pyridine-6-yl)piperidine-1-formamide] | 240 pM |
| Cc1cc(C[C@@H](NC(=O)N2CCC(c3cc4c([nH]c3=O)CCC4)CC2)C(=O)N2CCN(C3CCN(C)CC3)CC2)cc2cn[nH]c12 [Example 51, (R)-N-(3-(7-methyl-1H-indazole-5-yl)-1-(4-(1-methylpiperidine-4-yl)piperazine-1-yl)-1-oxopropan-2-yl)-4-(2-oxo-2,5,6,7-tetrahydro-1H-cyclopentadieno[b]pyridine-3-yl)piperidine-1-f ormamide] | 1940 pM |
| Cc1cc(C[C@@H](NC(=O)N2CCC(c3cc4c([nH]c3=O)SCC4)CC2)C(=O)N2CCC(C)(N3CCCCC3)CC2)cc2cn[nH]c12 [Example 22, (R)-N-(3-(7-methyl-1H-indazole-5-yl)-1-(4'-methyl-[1,4'-bipiperidine]-1'-yl)-1-oxopropan-2-yl)-4-(6-oxo-2,3,6,7-tetrahydrothieno[2,3-b]pyridine-6-yl)piperidine-1-formamide] | 810 pM |
| Cc1cc(C[C@@H](NC(=S)N2CCC(c3cc4c([nH]c3=O)SCC4)CC2)C(=O)N2CCN(C3CCN(C)CC3)CC2)cc2cn[nH]c12 [Example 16] | 710 pM |

Same assay, conditions: inhibition of CGRP-stimulated cAMP formation in SK-N-MC cells; read-out: IC50

| Compound | IC50 |
| --- | --- |
| Cc1cc(C[C@@H](NC(=O)N2CCC(c3cc4c([nH]c3=O)CSC4)CC2)C(=O)N2CCN(C3CCN(C)CC3)CC2)cc2cn[nH]c12 [Example 11, (R)-N-(3-(7-methyl-1H-indazole-5-yl)-1-(4-(1-methylpiperidine-4-yl)piperazine-1-yl)-1-oxopropan-2-yl)-4-(2-oxo-1,2,5,7-tetrahydrothieno[3,4-b]pyridine-3-yl)piperidine-1-formamide] | 7830 pM |
| Cc1cc(C[C@@H](NC(=O)N2CCC(c3cc4c([nH]c3=O)SCCC4)CC2)C(=O)N2CCC(N3CCCCC3)CC2)cc2cn[nH]c12 [Example 26, (R)-N-(1-([1,4'-bipiperidine]-1'-yl)-3-(7-methyl-1H-indazole-5-yl)-1-oxopropan-2-yl)-4-(7-oxo-3,4,7,8-tetrahydro-2H-thiopyrano[2,3-b]pyridine-6-yl)piperidine-1-formamide] | 100 pM |
| Cc1cc(C[C@@H](NC(=O)N2CCC(c3cc4c([nH]c3=O)SCCC4)CC2)C(=O)N2CC3CC2CC3N2CCCCC2)cc2cn[nH]c12 (stereo partly drawn) [Example 40, N-((2R)-3-(7-methyl-1H-indazole-5-yl)-1-oxo-1-(5-(piperidine-1-yl)-2-azabicyclo[2.2.1]hept-2-yl)propan-2-yl)-4-(7-oxo-3,4,7,8-tetrahydro-2H-thiopyrano[2,3-b]pyridine-6-yl)piperidine-1-formamide] | 3470 pM |
| Cc1cc(C[C@@H](NC(=O)N2CCC(c3cc4c([nH]c3=O)SCC4)CC2)C(=O)N2CCN(C3CCNCC3)CC2)cc2cn[nH]c12 [Example 50, (R)-N-(3-(7-methyl-1H-indazole-5-yl)-1-oxo-1-(4-(piperidine-4-yl)piperazine-1-yl)propan-2-yl)-4-(6-oxo-2,3,6,7-tetrahydrothieno[2,3-b]pyridine-5-yl)piperidine-1-formamide] | 70 pM |
| Cc1cc(C[C@@H](NC(=O)N2CCC(c3cc4c([nH]c3=O)SCC3(CC3)C4)CC2)C(=O)N2CCN(C3CCN(C)CC3)CC2)cc2cn[nH]c12 [Example 46, (R)-N-(3-(7-methyl-1H-indazole-5-yl)-1-(4-(1-methylpiperidine-4-yl)piperazine-1-yl)-1-oxopropan-2-yl)-4-(7'-oxo-7',8'-dihydro-2'H,4'H-spiro[cyclopropane-1,3'-thiopyrano[2,3-b]pyridine]-6'-yl)piperidine-1-formamide] | 150 pM |
